Assay results from patent publication US7442703B2, “Piperidine derivatives useful as CCR5 antagonists” (priority 2001, dated 2008).
Read-outs that look alike come from different tables or passages of the source.

System: HIV-1 luciferase reporter virus in U87-CD4-CCR5 cells
Test: HIV Replication (luciferase) assay
Format: cell-based
Procedure: Luciferase Replication Assay:
Plasmids encoding the full length genome of HIV-1 pNL-4-Luc with the gp120 V-3 loop replaced by the Bgl II fragment of HIV-1 ADA, YU-2 or HxB (ADA-Luc-FL, YU-2-Luc-FL and HxB-Luc-FL) are obtained from Dr. Susan Pontow (Washington University, St. Louis Mo.). Replication-competent luciferase reporter virus stocks are generated by transfection of plasmids into 293T cells using Superfect (Qiagen) or Mirus transfection reagents. Viral stocks are collected 48 hours following transfection and titered for luciferase production on U-87-CCR5 or CXCR4 cells. U87-CD4-CCR5 cells (10^4/well) are plated in 96-well cell culture plates and incubated overnight. Media is removed and replaced with 50 μl of fresh culture media (DMEM, 10% FCS) and 50 μl of compound diluted in culture medium. Cells are incubated with compound at 37° C. for 1 hour. The resultant supernatant is removed and replaced with 20 μl of media containing compound and infected with an equal volume of diluted or undiluted virus stock at 37° C. for 3-4 hours. The cells are washed once with DMEM, and 200 μl of media containing compound is added. The cultures are incubated for 3 days, the cells lysed in luciferase lysis buffer (Promega, Madison, Wis.) and transferred to Immulon plates (Dynex Technologies, Chantilly Va.). An equal volume of luciferase substrate (Promega, Madison Wis.) is added to lysates and the plates read immediately in a Wallac Luminometer. Fifty and ninety percent inhibitory concentrations are determined using GraphPad PRISM software.

[1] = Human immunodeficiency virus 1, U87/CD4/CCR5, read-out: HIV Replication (luciferase) IC50
[2] = Human immunodeficiency virus 1, U87/CD4/CCR5

SMILES | IC50 [1] [nM] | IC50 [2] [nM]
Cc1ncnc(C)c1C(=O)N1CCC(C)(N2CCC(N(c3ccccc3)c3cccc(F)c3)CC2)CC1 [Compound 93] | 0.21 | 
CCOc1ccc(N(c2ccccc2)C2CCN(C3(C)CCN(C(=O)c4c(C)ncnc4C)CC3)CC2)cc1 [Compound 99] | 0.3 | 
Cc1ncnc(C)c1C(=O)N1CCC(C)(N2CCC(N(Cc3ccncc3)c3ccc(Br)cc3)CC2)CC1 [Compound 88] | 5 | 
Cc1ncnc(C)c1C(=O)N1CCC(C)(N2CCC(N(Cc3ccccc3)c3ccc(Br)c4cccnc34)CC2)CC1 [Compound 52] | 1 | 
Cc1ncnc(C)c1C(=O)N1CCC(C)(N2CCC(N(c3ccccc3)c3ccc(Cl)cc3)CC2)CC1 [Compound 73] | 0.3 | 
Cc1cc(N(c2ccccc2)C2CCN(C3(C)CCN(C(=O)c4c(C)ncnc4C)CC3)CC2)ccc1Br [Compound 30] | 0.26 | 
Cc1ncnc(C)c1C(=O)N1CCC(C)(N2CCC(N(Cc3ccccc3)c3ccc(Oc4ccccc4)cc3)CC2)CC1 [Compound 43] | 2 | 
Cc1ncnc(C)c1C(=O)N1CCC(C)(N2CCC(N(c3ccccc3)c3ccc(Br)cn3)CC2)CC1 [Compound 71] | 0.6 | 
Cc1ncnc(C)c1C(=O)N1CCC(C)(N2CCC(N(c3ccccc3)c3ccc(Cl)cn3)CC2)CC1 [Compound 78] | 1 | 
Cc1ncnc(C)c1C(=O)N1CCC(C)(N2CCC(N(Cc3ccccc3)c3ccccc3F)CC2)CC1 [Compound 42] | 0.8 | 
C=CCOC(=O)NCCc1ccc(N(Cc2ccccc2)C2CCN(C3(C)CCN(C(=O)c4c(C)ncnc4C)CC3)CC2)cc1 [Compound 54] | 0.6 | 
Cc1ncnc(C)c1C(=O)N1CCC(C)(N2CCC(N(c3ccccc3)c3ccc(F)cc3)CC2)CC1 [Compound 79] | 1 | 
Cc1ncnc(C)c1C(=O)N1CCC(C)(N2CCC(N(Cc3ccccc3)c3ccccc3)CC2)CC1 [Compound 9] | 3 | 
Cc1ncnc(C)c1C(=O)N1CCC(C)(N2CCC(N(Cc3ccccc3)c3ccc(N4CCOCC4)cc3)CC2)CC1 [Compound 45] | 0.9 | 
CCN(CC)C(=O)c1cccc(N(Cc2ccccc2)C2CCN(C3(C)CCN(C(=O)c4c(C)ncnc4C)CC3)CC2)c1 [Compound 63] | 6 | 
Cc1ncnc(C)c1C(=O)N1CCC(C)(N2CCC(N(Cc3ccccc3)c3ccc(C(C)(C)C)cc3)CC2)CC1 [Compound 21] | 1 | 
COc1ccc(N(Cc2ccccc2)C2CCN(C3(C)CCN(C(=O)c4c(C)ncnc4C)CC3)CC2)cc1Cl [Compound 29] | 0.1 | 
Cc1cccc(N(c2ccccc2)C2CCN(C3(C)CCN(C(=O)c4c(C)ncnc4C)CC3)CC2)c1 [Compound 96] | 0.3 | 
Cc1ncnc(C)c1C(=O)N1CCC(C)(N2CCC(N(Cc3ccccc3)c3cccc(C(N)=O)c3)CC2)CC1 [Compound 61] | 0.5 | 
Cc1ncnc(C)c1C(=O)N1CCC(C)(N2CCC(N(c3ccccc3)c3ccc(Br)c(C(F)(F)F)c3)CC2)CC1 [Compound 95] | 2 | 
Cc1ncnc(C)c1C(=O)N1CCC(C)(N2CCC(N(Cc3ccccc3)c3cccc(Cl)c3)CC2)CC1 [Compound 18] | 0.1 | 

SMILES | IC50 [1] [nM] | IC50 [2] [nM]
Cc1cc(-c2cc[n+]([O-])cc2)cc(C)c1C(=O)N1CCC(C)(N2CCC(N(Cc3ccccc3)c3ccc(C(F)(F)F)nc3)CC2)CC1 [Compound 16] | 0.5 | 
Cc1ncnc(C)c1C(=O)N1CCC(C)(N2CCC(N(Cc3ccc(F)cc3)c3cccc(Br)c3)CC2)CC1 [Compound 19] | 0.5 | 
Cc1ncnc(C)c1C(=O)N1CCC(C)(N2CCC(N(Cc3ccccc3)c3cccc(C(=O)N4CCOCC4)c3)CC2)CC1 [Compound 62] | 4 | 
Cc1cc(-c2cc[n+]([O-])cc2)cc(C)c1C(=O)N1CCC(C)(N2CCC(N(c3ccccc3)c3ccc(C(F)(F)F)nc3)CC2)CC1 [Compound 82] | 0.1 | 
C=CCOC(=O)c1ccc(N(Cc2ccccc2)C2CCN(C3(C)CCN(C(=O)c4c(C)ncnc4C)CC3)CC2)cc1 [Compound 58] | 2 | 
Cc1ncnc(C)c1C(=O)N1CCC(C)(N2CCC(N(Cc3ccncc3)c3ccccc3)CC2)CC1 [Compound 86] | 75 | 
Cc1ncnc(C)c1C(=O)N1CCC(C)(N2CCC(N(Cc3ccccc3)c3cccc(C(=O)NCCO)c3)CC2)CC1 [Compound 67] | 6 | 
Cc1ncnc(C)c1C(=O)N1CCC(C)(N2CCC(N(CC3CCCCC3)c3ccccc3)CC2)CC1 [Compound 106] | 1 | 
Cc1ncnc(C)c1C(=O)N1CCC(C)(N2CCC(N(Cc3ccccn3)c3ccccc3)CC2)CC1 [Compound 90] | 3.4 | 
Cc1ncnc(C)c1C(=O)N1CCC(C)(N2CCC(N(c3ccccc3)c3ccccc3F)CC2)CC1 [Compound 104] | 3 | 
CCCN(c1cccc2cccnc12)C1CCN(C2(C)CCN(C(=O)c3c(C)ncnc3C)CC2)CC1 [Compound 110] |  | 23
Cc1cc(-c2cc[n+]([O-])cc2)cc(C)c1C(=O)N1CCC(C)(N2CCC(N(Cc3ccccn3)c3ccccc3)CC2)CC1 [Compound 84] | 10 | 
Cc1ncnc(C)c1C(=O)N1CCC(C)(N2CCC(N(Cc3ccccc3)c3cccc4cccnc34)CC2)CC1 [Compound 53] | 0.6 | 
Cc1ncnc(C)c1C(=O)N1CCC(C)(N2CCC(N(Cc3ccccc3)c3ccncc3)CC2)CC1 [Compound 108] |  | 0.8
Cc1ncnc(C)c1C(=O)N1CCC(C)(N2CCC(N(Cc3ccccc3)c3cccc(C(F)(F)F)c3)CC2)CC1 [Compound 20] | 0.2 | 
Cc1ncnc(C)c1C(=O)N1CCC(C)(N2CCC(N(c3ccccc3)c3ccc(C(F)(F)F)cn3)CC2)CC1 [Compound 76] | 0.2 | 
Cc1ncnc(C)c1C(=O)N1CCC(C)(N2CCC(N(CCc3ccccc3)c3ccccc3)CC2)CC1 [Compound 75] | 38 | 
CCc1ccc(N(c2ccccc2)C2CCN(C3(C)CCN(C(=O)c4c(C)ncnc4C)CC3)CC2)cc1 [Compound 100] | 0.1 | 
Cc1ncnc(C)c1C(=O)N1CCC(C)(N2CCC(N(Cc3ccccc3)c3ccc(C(=O)O)cc3)CC2)CC1 [Compound 60] | 27 | 
Cc1ncnc(C)c1C(=O)N1CCC(C)(N2CCC(N(Cc3ccccc3)c3ccc(I)cc3)CC2)CC1 [Compound 23] | 0.1 | 
Cc1ncnc(C)c1C(=O)N1CCC(C)(N2CCC(N(Cc3ccccc3)c3cccc(C#N)c3)CC2)CC1 [Compound 44] | 0.1 | 

SMILES | IC50 [1] [nM] | IC50 [2] [nM]
Cc1ncnc(C)c1C(=O)N1CCC(C)(N2CCC(N(Cc3ccccc3)c3cccc(C(=O)O)c3)CC2)CC1 [Compound 59] | 4 | 
Cc1ncnc(C)c1C(=O)N1CCC(C)(N2CCC(N(Cc3ccccc3)C3CCN(S(=O)(=O)c4ccccc4Cl)CC3)CC2)CC1 [Compound 5] | 2.1 | 
Cc1ncnc(C)c1C(=O)N1CCC(C)(N2CCC(N(Cc3ccccc3)c3cccc(Br)c3)CC2)CC1 [Compound 17] | 0.1 | 
Cc1ncnc(C)c1C(=O)N1CCC(C)(N2CCC(N(Cc3ccccc3)c3ccc(OC(F)(F)F)cc3)CC2)CC1 [Compound 11] | 0.2 | 
Cc1ncnc(C)c1C(=O)N1CCC(C)(N2CCC(N(c3ccccc3)c3cc(F)cc(F)c3)CC2)CC1 [Compound 101] | 0.1 | 
Cc1ncnc(C)c1C(=O)N1CCC(C)(N2CCC(N(Cc3ccccc3)c3ccc(F)c(F)c3)CC2)CC1 [Compound 25] | 0.1 | 
Cc1ncnc(C)c1C(=O)N1CCC(C)(N2CCC(N(Cc3ccccc3)C3CCN(Cc4ccccc4)CC3)CC2)CC1 [Compound 4] | 1.7 | 
Cc1ncnc(C)c1C(=O)N1CCC(C)(N2CCC(N(Cc3ccccc3)c3cc(F)cc(F)c3)CC2)CC1 [Compound 36] | 0.1 | 
Cc1ncnc(C)c1C(=O)N1CCC(C)(N2CCC(N(Cc3ccccc3)c3ccc(Cl)c(Cl)c3)CC2)CC1 [Compound 26] | 0.3 | 
Cc1ncnc(C)c1C(=O)N1CCC(C)(N2CCC(N(Cc3ccccc3)c3cccc(C(=O)NO)c3)CC2)CC1 [Compound 64] | 4 | 
Cc1ncnc(C)c1C(=O)N1CCC(C)(N2CCC(N(c3ccccc3)c3ccc(I)cc3)CC2)CC1 [Compound 107] | 1 | 
Cc1ncnc(C)c1C(=O)N1CCC(C)(N2CCC(N(c3ccccc3)c3ccccc3)CC2)CC1 [Compound 72] | 0.3 | 
Cc1ncnc(C)c1C(=O)N1CCC(C)(N2CCC(N(c3ccccc3)c3ccccn3)CC2)CC1 [Compound 77] | 7 | 
Cc1ncnc(C)c1C(=O)N1CCC(C)(N2CCC(N(c3ccccc3)c3ccc(OC(F)(F)F)cc3)CC2)CC1 [Compound 70] | 1 | 
Cc1ncnc(C)c1C(=O)N1CCC(C)(N2CCC(N(Cc3ccccc3)c3ccc(CCNS(C)(=O)=O)cc3)CC2)CC1 [Compound 47] | 0.05 | 
Cc1ncnc(C)c1C(=O)N1CCC(C)(N2CCC(N(Cc3ccccc3)c3cccc(C(=O)Nc4ccccc4)c3)CC2)CC1 [Compound 65] | 2 | 
Cc1ncnc(C)c1C(=O)N1CCC(C)(N2CCC(N(Cc3ccccc3)c3cccc(OC(F)(F)F)c3)CC2)CC1 [Compound 24] | 0.2 | 
Cc1cccc(N(Cc2ccccc2)C2CCN(C3(C)CCN(C(=O)c4c(C)ncnc4C)CC3)CC2)c1 [Compound 39] | 0.1 | 
Cc1ncnc(C)c1C(=O)N1CCC(C)(N2CCC(N(Cc3ccccc3)c3cc(Cl)cc(Cl)c3)CC2)CC1 [Compound 32] | 1.7 | 
Cc1ncnc(C)c1C(=O)N1CCC(C)(N2CCC(N(Cc3ccccc3)c3ccc(CCN)cc3)CC2)CC1 [Compound 55] | 3.5 | 
